Article PMC7498612, “A rationally designed bicyclic peptide remodels Aβ42 aggregation in vitro and reduces its toxicity in a worm model of Alzheimer’s disease” (Scientific Reports, 2020)
Where a SMILES comes first, the peptide text is derived from it.

How the values were obtained:
[1] = system: islet amyloid polypeptide, Aβ and α-synuclein; conditions: cited from earlier work
Description: In this study, we apply this design strategy to generate a bicyclic peptide capable of binding Aβ42 and of interfering with its aggregation process. The aggregation of Aβ42 is a complex process resulting from the combination of different microscopic steps and involving a variety of molecular species[35],[36]. […] Therefore, some therapeutic strategies aim at decreasing the concentrations of these oligomeric species by delaying or preventing their formatio ...

[2] = biological target: T1, Aβ42 monomers (Homo sapiens, UniProt P05067); test: Bio-layer interferometry (BLI) binding of DesBP to sensor-coupled Aβ42 monomers; conditions: DesBP 50 and 100 μM, 30 °C
T1 construct: the 42-residue form of the amyloid β peptide (Aβ42)
Method: To test for direct peptide-peptide interaction, biolayer interferometry (BLI) was performed on the Octet RED96 System (ForteBio, Menlo Park, USA). DesBP was used as interaction partner for sensor-coupled Aβ42. Coupled sensors were first dipped into ForteBio kinetics buffer (PBS, 0.1% BSA, 0.02% Tween20 and 0.05% sodium azide, pH 7.4) to establish a stable baseline, then into different concentrations of DesBP and finally in pure kinetics buffer again to monitor dissociation. Both association and dissociation processes were monitored at 30 °C over 50 and 200 s, respectively. In the data analysis, all curves were globally fit with a 1:1 binding model.

[3] = system: N2 worms; test: C. elegans N2 control worms motility / fitness; assay type: in vivo; conditions: same concentration of DesBP (40 μM); compared to effect on Aβ worms
Description: We thus administered DesBP to Aβ worms at day 4 (D4) of adulthood, when Aβ42 aggregates are already formed, and paralysis is ongoing, and compared the resulting effects of the addition of DesBP to those observed in a control worm model, N2 (see “Materials and methods” section). […] On the other hand, the effects of the same concentration of DesBP to control N2 worms were negligible when compared to the effect observed on Aβ worms (Supplementary Fig. 12).
Media Standard conditions were used for the propagation of C. elegans. Briefly, the animals were synchronized by hypochlorite bleaching, hatched overnight in M9 (3 g/l KH2PO4, 6 g/l Na2HPO4, 5 g/l NaCl, […]) buffer, and subsequently cultured at 20 °C on nematode growth medium (NGM) (CaCl2 1 mM, MgSO4 1 mM, cholesterol 5 µg/ml, […] pH 6, Agar 17 g/L, NaCl 3 g/l, casein 7.5 g/l) plates seeded with the E. coli strain OP50. Saturated cultures of OP50 were grown by inoculating 50 mL of LB medium (tryptone 10 g/l, NaCl 10 g/l, yeast extract 5 g/l) with OP50 and incubating the culture for 16 h at 37 °C. NGM plates were seeded with bacteria by adding 350 µl of saturated OP50 to each plate and leaving the plates at 20 °C for 2–3 days. On day 3 after synchronization, the animals were placed on NGM plates containing 5-fluoro-2′deoxy-uridine (FUDR) (75 μM, unless stated otherwise) to inhibit the growth of offspring. […]

[4] = system: Aβ42; test: ThT fluorescence aggregation kinetics of Aβ42; assay type: biochemical; conditions: ThT assay
Method: In order to investigate the effects of DesBP on the aggregation of Aβ42, we carried out in vitro aggregation assays using thioflavin T (ThT) as an amyloid-specific fluorescent probe[63],[64]. We monitored fibril formation for Aβ42 at a concentration of 2 µM in the absence and presence of a range of concentrations (0.25–16 fold excess) of DesBP at 37 °C under quiescent conditions, using a highly reproducible protocol previously described. We then validated our results by means of far-UV circular dichroism (CD) and atomic force microscopy (AFM).
Monomeric Aβ42 peptide solutions were prepared by dissolving the lyophilized peptide in 6 M GuHCl. A Superdex 75 10/300 GL column (GE Healthcare) was used to purify Aβ42 monomers from Aβ42 oligomers and salt with a flow rate of 0.5 ml/min, and eluted in 20 mM sodium phosphate buffer (pH 8) with 200 μM EDTA. By collecting the centres of the peaks, the monomeric Aβ42 concentrations were determined from the integrated peak area with ε280 = 1,495 L mol^−1 cm^−1. Aβ42 monomers were then diluted to the target concentration with buffer and 20 μM ThT was added from a 1 mM stock. […] Assays were carried out at 37 °C under quiescent conditions in a plate reader (Fluostar Optima; BMG Labtech). ThT fluorescence was measured through the bottom of the plate with 440 nm excitation and 480 nm emission filters, with five repeats per sample. […]

For `CC(C)[C@@H](CC[C@@H](C)[C@H]1CC[C@H]2[C@@H]3[C@H](O)C[C@H]4C[C@@H](NCCCNCCCCNCCCN)CC[C@]4(C)[C@H]3CC[C@]12C)OS(=O)(=O)O` [trodusquemine], the “modulation of aggregation process” value [1] is given as “redirecting them towards the formation of non-toxic aggregates”.

For `O=C(O[C@@H]1Cc2c(O)cc(O)cc2O[C@@H]1c1cc(O)c(O)c(O)c1)c1cc(O)c(O)c(O)c1` [EGCG, epigallocatechin gallate], the “modulation of aggregation process” value [1] is listed as “redirecting them towards the formation of non-toxic aggregates”.

For `CC[C@H](C)[C@@H]1NC(=O)CNC(=O)[C@H](CC(C)C)NC(=O)[C@H](CCCCN)NC(=O)[C@@H](NC(=O)[C@H](C)NC(=O)[C@H](C)NC(=O)[C@@H](N)CCCNC(=N)N)CSCc2cc3cc(c2)CSC[C@H](NC(=O)[C@H](C)NC(=O)[C@H](CCCCN)NC1=O)C(=O)N[C@@H]([C@@H](C)O)C(=O)N[C@@H](CO)C(=O)N[C@@H](C(C)C)C(=O)N[C@@H](Cc1ccc(O)cc1)C(=O)N[C@@H](Cc1c[nH]cn1)C(=O)N[C@@H](C)C(=O)N[C@H](C(=O)NCC(=O)NCC(=O)N[C@@H](CCCCN)C(=O)N[C@@H](CCCNC(=N)N)C(=O)N[C@@H](CCCNC(=N)N)C(=O)O)CSC3` [DesBP] (HELM PEPTIDE1{R.A.A.C.K.L.G.I.K.A.C.T.S.V.Y.H.A.C.G.G.K.R.R}|CHEM1{[c1c(C[*:1])cc(C[*:3])cc1C[*:2]]}$PEPTIDE1,CHEM1,4:R3-1:R1|PEPTIDE1,CHEM1,11:R3-1:R2|PEPTIDE1,CHEM1,18:R3-1:R3$$$V2.0), the koff ([2]; pH 7.4, single-exponential fit, read-out: dissociation rate kd) was 0.06 ± 0.002 s⁻¹, the Kd ([2]; Octet RED96, kinetics buffer PBS, 0.1% BSA, 0.02% Tween20, pH 7.4, association 50 s, dissociation 200 s, global fit 1:1 binding model, read-out: dissociation constant (KD)) was 640 ± 260 µM and the “effect on control N2 worms” value [3] was “negligible”.

In the case of `Cc1cc(C)cc(C)c1` [TMB, 1,3,5-trimethylbenzene], the “effect on Aβ42 aggregation (control compounds)” value ([4]; Supplementary Fig. 7) is reported as “slightly delayed the nucleation step of Aβ42 aggregation” and the “magnitude of ThT fluorescence (control compound)” value ([4]; Supplementary Fig. 7b) is reported as “did not show significant changes on the magnitude of ThT fluorescence”.
